Experimental data: PubChem BioAssay (NCI)
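Values below derive from 48-hour exposures of cells grown in 96-well plates, with endpoints linearly interpolated between the two concentrations bracketing the appropriate inhibition level. TGI denotes the concentration required for complete inhibition of growth.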

How the values were obtained:
Experiment in all cases: DTP human tumour cell line panel, 48 h
[1] = system: HCT-116 colon
[2] = system: NCI-H23 lung
[3] = system: RXF 393 renal
[4] = system: CAKI-1 renal
[5] = system: NCI-H522 lung
[6] = system: SW-620 colon
[7] = system: DMS 273 small cell lung
[8] = system: SK-MEL-28 melanoma
[9] = system: XF 498 CNS
[10] = system: TK-10 renal
[11] = system: NCI-H460 lung
[12] = system: ACHN renal
[13] = system: OVCAR-8 ovarian
[14] = system: HCT-15 colon
[15] = system: MALME-3M melanoma
[16] = system: UO-31 renal
[17] = system: HOP-92 NSCLC
[18] = system: LXFL 529 NSCLC
[19] = system: SN12C renal
[20] = system: SNB-75 CNS
[21] = system: EKVX NSCLC
[22] = system: OVCAR-5 ovarian
[23] = system: SNB-78 CNS
[24] = system: DMS 114 small cell lung
[25] = system: MOLT-4 leukemia
[26] = system: OVCAR-4 ovarian
[27] = system: SF-295 CNS
[28] = system: NCI-H226 lung
[29] = system: M14 melanoma
[30] = system: LOX IMVI melanoma
[31] = system: SF-268 CNS
[32] = system: DLD-1 colon
[33] = system: SK-MEL-2 melanoma
[34] = system: OVCAR-3 ovarian
[35] = system: SF-539 CNS
[36] = system: CCRF-CEM leukemia
[37] = system: COLO 205 colon
[38] = system: K-562 leukemia
[39] = system: SR leukemia
[40] = system: A549 NSCLC
[41] = system: SK-MEL-5 melanoma
[42] = system: SNB-19 CNS
[43] = system: U251 CNS
[44] = system: SK-OV-3 ovarian
[45] = system: HCC-2998 colon
[46] = system: 786-0 renal
[47] = system: KM12 colon
[48] = system: HT29 colon
[49] = system: M19-MEL melanoma
[50] = system: HOP-62 NSCLC
[51] = system: IGROV1 ovarian
[52] = system: UACC-62 melanoma
[53] = system: DU-145 prostate
[54] = system: MDA-MB-435
[55] = system: RPMI-8226 leukemia
[56] = system: MDA-MB-231 breast
[57] = system: MDA-N
[58] = system: A498 renal
[59] = system: BT-549 breast
[60] = system: T-47D breast
[61] = system: HL-60(TB) leukemia
[62] = system: PC-3 prostate
[63] = system: NCI/ADR-RES ovarian
[64] = system: MCF7 breast
[65] = system: HS 578T breast
[66] = system: UACC-257 melanoma

Measured: TGI

CCCN1C(=O)C/C(=C\C(C)=O)Nc2ccccc21
> 100 µM: [1] | [2] | [3] | [4] | [5] | [6] | [7] | [8] | [9] | [10] | [11] | [12] | [13] | [14] | [15] | [16] | [17] | [18] | [19] | [20] | [21] | [22] | [23] | [24] | [25] | [26] | [27] | [28] | [29] | [30] | [31] | [32] | [33] | [34] | [35] | [36] | [37] | [38] | [39] | [40] | [41] | [42] | [43] | [44] | [45] | [46] | [47] | [48] | [49] | [50] | [51] | [52]

COC(=O)c1ccccc1C1CN=NC12Cc1ccc3ccccc3c1C2=O (stereo not drawn)
> 100 µM: [53] | [54] | [55] | [3] | [4] | [5] | [56] | [6] | [57] | [8] | [10] | [58] | [11] | [59] | [12] | [13] | [14] | [15] | [16] | [61] | [62] | [63] | [17] | [19] | [20] | [21] | [22] | [25] | [64] | [26] | [27] | [28] | [29] | [30] | [31] | [33] | [34] | [35] | [36] | [37] | [38] | [39] | [40] | [41] | [65] | [66] | [42] | [43] | [45] | [46] | [47] | [51] | [52]
96.9 µM: [60]

CCOP(=O)(OCC)C(NC(=O)OCC(Cl)(Cl)Cl)n1nnc(C(=O)OC)c1C(=O)OC (stereo not drawn)
> 100 µM: [1] | [53] | [2] | [54] | [55] | [3] | [4] | [5] | [56] | [6] | [57] | [8] | [10] | [58] | [11] | [59] | [12] | [60] | [13] | [14] | [15] | [16] | [61] | [62] | [63] | [17] | [20] | [21] | [25] | [64] | [26] | [27] | [28] | [29] | [30] | [31] | [33] | [34] | [35] | [36] | [37] | [38] | [39] | [40] | [41] | [65] | [66] | [42] | [43] | [44] | [45] | [46] | [47] | [48] | [50] | [51] | [52]
